# Measured values reported in US20150105252A1, “SUBSTITUTED PYRAZOLES AS HERBICIDES” (E I DU PONT DE NEMOURS AND COMPANY, priority 2013, published 2015).
# What was measured:
# [1] = test system: barnyardgrass; assay: Test A preemergence; assay type: in vivo, Echinochloa crus-galli; details: preemergence; for Barnyardgrass plant response rating (0 to 100 scale, 0 is no effect, 100 is complete control): 125 g ai/ha, visual injury approx. 10 days after treatment; for Barnyardgrass plant response rating: 500 g ai/ha, visual injury after approx. 10 days, 0 to 100 scale (0 no effect, 100 complete control)
# How it was run: (§1)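 Visual injury ratings, 0 = no effect to 100 = complete control, taken about 10 days after treatment against untreated controls. Test chemicals, in a non-phytotoxic surfactant-containing solvent, were sprayed onto soil preemergence or onto one- to two-leaf plants (2–10 cm) postemergence, in loam–sand soil under greenhouse conditions.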
# [2] = test system: pigweed; assay: Test A preemergence; assay type: in vivo, Amaranthus retroflexus; details: preemergence; for Pigweed plant response rating (0 to 100 scale): 125 g ai/ha, visual injury approx. 10 days after treatment
# How it was run: as §1
# [3] = test system: barnyardgrass; assay: Test A postemergence; assay type: in vivo, Echinochloa crus-galli
# How it was run: as §1
# [4] = test system: foxtail, giant; assay: Test A postemergence; assay type: in vivo, Setaria faberii
# How it was run: as §1
# [5] = test system: velvetleaf; assay: Test A postemergence; assay type: in vivo, Abutilon theophrasti; details: Postemergence
# How it was run: as §1
# [6] = test system: corn; assay: Test A postemergence; assay type: in vivo, Zea mays
# How it was run: as §1
# [7] = test system: rice; assay: Test B flood; assay type: in vivo, Oryza sativa; details: 250 g ai/ha, visual rating on 0 to 100 scale (0 no effect, 100 complete control), 13 to 15 days
# How it was run: (§2)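 Each compound is applied to the floodwater of pots holding 2-leaf seedlings, water standing 3 cm over the soil throughout. Plants stay in a greenhouse 13 to 15 days before visual scoring against controls from 0 (no effect) to 100 (complete control).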
# [8] = test system: barnyardgrass; assay: Test B flood; assay type: in vivo, Echinochloa crus-galli; details: 250 g ai/ha, visual rating on 0 to 100 scale (0 no effect, 100 complete control), 13 to 15 days
# How it was run: as §2
# [9] = test system: blackgrass; assay: Test C preemergence; assay type: in vivo, Alopecurus myosuroides; details: preemergence; for Plant response rating, Blackgrass: 125 g ai/ha, scale 0 to 100, 0 = no effect, 100 = complete control
# How it was run: (§3)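 Visual rating, 0–100 scale (0 no effect, 100 complete control), vs untreated controls after 13–15 d greenhouse. Pre: seeds in loam/sand, treated at sowing. Post: plants in peat-based mix, 1- to 4-leaf (2–18 cm). Solvent + surfactant formulation, non-phytotoxic.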
# [10] = test system: ryegrass, Italian; assay: Test C preemergence; assay type: in vivo, Lolium multiflorum
# How it was run: as §3
# [11] = test system: crabgrass, large; assay: Test C preemergence; assay type: in vivo, Digitaria sanguinalis
# How it was run: as §3
# [12] = test system: johnsongrass; assay: Test C preemergence; assay type: in vivo, Sorghum halepense
# How it was run: as §3
# [13] = test system: morningglory; assay: Test C preemergence; assay type: in vivo, Ipomoea coccinea
# How it was run: as §3
# [14] = test system: pigweed; assay: Test C preemergence; assay type: in vivo, Amaranthus retroflexus
# How it was run: as §3
# [15] = Postemergence, 500 g ai/ha, 0 to 100 scale (0 no effect, 100 complete control)
# [16] = postemergence, 125 g ai/ha, about 10 days, visual rating on 0 to 100 scale (0 no effect, 100 complete control)
# [17] = 125 g ai/ha, 0 to 100 scale, 0 no effect, 100 complete control
# [18] = 500 g ai/ha, 0 to 100 scale (0 no effect, 100 complete control)
# [19] = 31 g ai/ha, visual rating, scale 0 to 100 (0 no effect, 100 complete control), 13 to 15 days
# [20] = 62 g ai/ha, scale 0 to 100 (0 no effect, 100 complete control), 13 to 15 days
# [21] = 250 g ai/ha, scale 0 to 100, 0 is no effect, 100 is complete control
# [22] = preemergence, 31 g ai/ha, visual rating, scale 0 to 100 (0 no effect, 100 complete control), 13 to 15 days
# [23] = preemergence, 62 g ai/ha, scale 0 to 100 (0 no effect, 100 complete control), 13 to 15 days
# [24] = preemergence, 125 g ai/ha, 13 to 15 days, scale 0 to 100, 0 = no effect, 100 = complete control
# [25] = preemergence, 250 g ai/ha, scale 0 to 100, 0 is no effect, 100 is complete control
# [26] = Postemergence, 125 g ai/ha, 0 to 100 scale, 0 no effect, 100 complete control
# [27] = Preemergence, rate head not shown (block before 16 g ai/ha), scale 0 to 100
SMILES,"Barnyardgrass plant response rating (0 to 100 scale, 0 is no effect, 100 is complete control) [1]",Barnyardgrass plant response rating [1],Pigweed plant response rating (0 to 100 scale) [2],"Barnyardgrass plant response rating [3, 15]","Foxtail, Giant plant response rating [4, 15]","Velvetleaf plant response rating [5, 17]","Velvetleaf plant response rating [5, 18]","Corn plant response rating [6, 15]","Plant response rating, Rice [7]","Plant response rating, Barnyardgrass [8]","Blackgrass plant response rating [9, 19]","Blackgrass plant response rating [9, 20]","Plant response rating, Blackgrass ([9]; 13 to 15 days)","Blackgrass plant response rating [9, 21]","Ryegrass, Italian plant response rating [10, 23]","Plant response rating, Ryegrass, Italian [10, 24]","Ryegrass, Italian plant response rating [10, 25]","Crabgrass, Large plant response rating [11, 23]","Plant response rating, Crabgrass, Large [11, 24]","Crabgrass, Large plant response rating [11, 25]",other results
CCc1cc(C(=O)NC2CC2)nn1Cc1ccnc(OCC(F)(F)F)c1 [Compound 200],90,100,100,100,100,80,90,100,0,25,50,80,90,90,90,90,95,100,100,100,"Pigweed plant response rating ([2]; 500 g ai/ha, visual injury after approx. 10 days, 0 to 100 scale (0 no effect, 100 complete control)): 100; Barnyardgrass plant response rating [3, 16]: 90; Foxtail, Giant plant response rating [4, 16]: 100; Corn plant response rating [6, 16]: 80; Ryegrass, Italian plant response rating [10, 22]: 0; Crabgrass, Large plant response rating [11, 22]: 100; Johnsongrass plant response rating [12, 22]: 50; Johnsongrass plant response rating [12, 23]: 80; Plant response rating, Johnsongrass [12, 24]: 90; Johnsongrass plant response rating [12, 25]: 98; Morningglory plant response rating [13, 22]: 55; Morningglory plant response rating [13, 23]: 95; Plant response rating, Morningglory [13, 24]: 98; Morningglory plant response rating [13, 25]: 100; Pigweed plant response rating [14, 22]: 100; Pigweed plant response rating [14, 23]: 100; Plant response rating, Pigweed [14, 24]: 100; Pigweed plant response rating [14, 25]: 100"
CCc1cc(C(=O)NC2CC2)nn1Cc1cc(C(F)(F)C(F)(F)F)nn1C [Compound 226],80,100,100,90,90,50,90,80,30,50,60,85,70,90,5,35,80,100,100,100,"Barnyardgrass plant response rating [3, 26]: 60; Foxtail, Giant plant response rating [4, 26]: 80; Corn plant response rating [6, 26]: 50; Plant response rating, Ryegrass, Italian [10, 27]: 0; Plant response rating, Crabgrass, Large [11, 27]: 80; Plant response rating, Johnsongrass [12, 27]: 10; Johnsongrass plant response rating [12, 23]: 55; Plant response rating, Johnsongrass [12, 24]: 100; Johnsongrass plant response rating [12, 25]: 85; Plant response rating, Morningglory [13, 27]: 85; Morningglory plant response rating [13, 23]: 85; Plant response rating, Morningglory [13, 24]: 100; Morningglory plant response rating [13, 25]: 100; Plant response rating, Pigweed [14, 27]: 100; Pigweed plant response rating [14, 23]: 100; Plant response rating, Pigweed [14, 24]: 100; Pigweed plant response rating [14, 25]: 100"
